Experimental data: PubChem BioAssay (NCI)
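At the GI50, growth is halved. TGI is the concentration that stops growth completely.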

Key:
Test in all cases: growth of human tumour cells (NCI), 384-well format
[1] = system: NCI-H23 lung
[2] = system: HCT-15 colon
[3] = system: SK-MEL-2 melanoma
[4] = system: 786-0 renal
[5] = system: CCRF-CEM leukemia
[6] = system: OVCAR-4 ovarian
[7] = system: CAKI-1 renal
[8] = system: UACC-62 melanoma
[9] = system: OVCAR-8 ovarian
[10] = system: HT29 colon
[11] = system: KM12 colon
[12] = system: A549 NSCLC
[13] = system: MDA-MB-468 breast
[14] = system: SF-268 CNS
[15] = system: HS 578T breast
[16] = system: PC-3 prostate
[17] = system: RPMI-8226 leukemia
[18] = system: A498 renal
[19] = system: HOP-62 NSCLC
[20] = system: SNB-19 CNS
[21] = system: LOX IMVI melanoma
[22] = system: NCI-H522 lung
[23] = system: NCI-H226 lung
[24] = system: RXF 393 renal
[25] = system: BT-549 breast
[26] = system: SW-620 colon
[27] = system: U251 glioblastoma
[28] = system: T-47D breast
[29] = system: ACHN renal
[30] = system: OVCAR-5 ovarian
[31] = system: UACC-257 melanoma
[32] = system: HOP-92 NSCLC
[33] = system: MCF7 breast
[34] = system: SF-295 CNS
[35] = system: NCI/ADR-RES ovarian
[36] = system: UO-31 renal
[37] = system: K-562 leukemia
[38] = system: OVCAR-3 ovarian
[39] = system: NCI-H322M lung
[40] = system: M14 melanoma
[41] = system: SNB-75 CNS
[42] = system: SK-MEL-28 melanoma
[43] = system: SK-OV-3 ovarian
[44] = system: MDA-MB-231 breast
[45] = system: EKVX NSCLC
[46] = system: MALME-3M melanoma
[47] = system: HCT-116 colon
[48] = system: SF-539 CNS
[49] = system: MDA-MB-435 melanoma
[50] = system: IGROV1 ovarian
[51] = system: SN12C renal

## COc1cccc2c1C(=O)c1c(O)c3c(c(O)c1C2=O)C[C@@](O)(C(C)=O)C[C@@H]3OC1CC(N)C(O)C(C)O1 (stereo partly drawn)
[1]
  GI50: 21.9 nM
  TGI: 69.3 nM
[2]
  GI50: 51.7 nM
  TGI: 1010 nM
[3]
  GI50: 71 nM
  TGI: 142 nM
[4]
  GI50: 31 nM
  TGI: 1200 nM
[5]
  TGI: 16.9 nM
[6]
  GI50: 165 nM
  TGI: 701 nM
[7]
  GI50: 48.6 nM
  TGI: 440 nM
[8]
  GI50: 11.5 nM
  TGI: 115 nM
[9]
  GI50: 37 nM
  TGI: 197 nM
[10]
  GI50: 29.2 nM
  TGI: 148 nM
[11]
  GI50: 15.9 nM
  TGI: 908 nM
[12]
  GI50: 36.9 nM
  TGI: 170 nM
[13]
  GI50: 10.7 nM
  TGI: 24 nM
[14]
  GI50: 25.4 nM
  TGI: 181 nM
[15]
  GI50: 45.4 nM
  TGI: 234 nM
[16]
  GI50: 85.9 nM
  TGI: 282 nM
[17]
  TGI: 20.9 nM
[18]
  GI50: 28.2 nM
  TGI: 199 nM
[19]
  GI50: 19.4 nM
  TGI: 73.8 nM
[20]
  GI50: 31.8 nM
  TGI: 13100 nM
[21]
  GI50: 19.3 nM
  TGI: 135 nM
[22]
  TGI: 90.9 nM
[23]
  GI50: 33.5 nM
  TGI: 282 nM
[24]
  GI50: 102 nM
  TGI: 237 nM
[25]
  GI50: 17.9 nM
  TGI: 94.7 nM
[26]
  TGI: 201 nM
[27]
  GI50: 10 nM
  TGI: 1080 nM
[28]
  GI50: 36.8 nM
  TGI: 2140 nM
[29]
  GI50: 69.5 nM
  TGI: 265 nM
[30]
  GI50: 105 nM
  TGI: 325 nM
[31]
  GI50: 90.2 nM
  TGI: 216 nM
[32]
  GI50: 60 nM
  TGI: 3140 nM
[33]
  GI50: 21.5 nM
  TGI: 10500 nM
[34]
  GI50: 32.1 nM
  TGI: 114 nM
[35]
  GI50: 1520 nM
  TGI: 3390 nM
[36]
  GI50: 303 nM
  TGI: 1470 nM
[37]
  GI50: 14.6 nM
  TGI: 138 nM
[38]
  GI50: 78.1 nM
  TGI: 566 nM
[39]
  GI50: 152 nM
  TGI: 433 nM
[40]
  GI50: 21.8 nM
  TGI: 135 nM
[41]
  GI50: 108 nM
  TGI: 269 nM
[42]
  GI50: 103 nM
  TGI: 229 nM
[43]
  GI50: 36.7 nM
  TGI: 181 nM
[44]
  GI50: 24.3 nM
  TGI: 133 nM
[45]
  GI50: 283 nM
  TGI: 1650 nM
[46]
  GI50: 44.5 nM
  TGI: 176 nM
[47]
  GI50: 14.6 nM
  TGI: 1970 nM
[48]
  GI50: 13.5 nM
  TGI: 115 nM
[49]
  GI50: 103 nM
  TGI: 260 nM
[50]
  GI50: 118 nM
  TGI: 281 nM
[51]
  GI50: 24.2 nM
  TGI: 160 nM
